Paper PMC5077204, “Accumulation of Peptidoglycan O-Acetylation Leads to Altered Cell Wall Biochemistry and Negatively Impacts Pathogenesis Factors of Campylobacter jejuni” (The Journal of Biological Chemistry, 2016)

Target: T1, Ape1-His6 (Campylobacter jejuni, UniProt A0A0H3PJ52)
T1 construct: gene CJJ81176_0638; predicted 21-residue signal peptide removed; C-terminal His6 tag (pET28a(+)), expressed in E. coli BL21(DE3)
Test: absorbance at […] nm, p-nitrophenol release
Assay type: biochemical
Conditions: 2 mM pNPAc; 50 mM sodium phosphate pH 6.5; room temperature

T1 sequence (A0A0H3PJ52 entry or part of it): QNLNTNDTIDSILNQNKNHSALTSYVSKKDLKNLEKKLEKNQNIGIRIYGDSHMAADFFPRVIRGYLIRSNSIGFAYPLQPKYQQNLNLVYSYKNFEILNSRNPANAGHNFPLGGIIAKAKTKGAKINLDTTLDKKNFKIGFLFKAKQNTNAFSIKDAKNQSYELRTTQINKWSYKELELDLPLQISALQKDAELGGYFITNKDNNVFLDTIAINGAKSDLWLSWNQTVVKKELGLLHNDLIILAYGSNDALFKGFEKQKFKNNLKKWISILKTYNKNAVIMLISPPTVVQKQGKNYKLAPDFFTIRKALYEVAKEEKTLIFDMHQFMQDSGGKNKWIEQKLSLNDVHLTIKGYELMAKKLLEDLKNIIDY

CC(=O)Oc1ccc([N+](=O)[O-])cc1 [p-nitrophenyl acetate]
absorbance at 405 nm, p-nitrophenol release: The specific activity of purified Ape1 was determined using p-nitrophenylacetate (pNPAc)
